Test results published in patent publication US11291205B2, “Microbiocidal picolinamide derivatives” (Syngenta Participations AG, priority 2017, dated 2022).

Legend:
[1] = tested on: Mycosphaerella arachidis (Cercospora arachidicola); experiment: Mycosphaerella arachidis (Cercospora arachidicola) / liquid culture (early leaf spot); assay type: cell-based; conditions: 96 h, 200 ppm in the formulation, inhibition of growth determined photometrically 4-5 days after application, compared to untreated control, read-out: disease control
Procedure: (§1) Mycosphaerella arachidis (Cercospora arachidicola)/Liquid Culture (Early Leaf Spot) Conidia of the fungus from cryogenic storage are directly mixed into nutrient broth (PDB potato dextrose broth). After placing a (DMSO) solution of test compound into a microtiter plate (96-well format), the nutrient broth containing the fungal spores is added. The test plates are incubated at 24° C. and the inhibition of growth is determined photometrically 4-5 days after application.

[2] = tested on: Phaeosphaeria nodorum (Septoria nodorum); experiment: Phaeosphaeria nodorum (Septoria nodorum) / wheat / leaf disc preventative (glume blotch); assay type: in vivo; conditions: 200 ppm in the formulation; wheat leaf segments cv. Kanzler; compared to untreated control; 5-7 days after application
Procedure: Phaeosphaeria nodorum (Septoria nodorum)/Wheat/Leaf Disc Preventative (Glume Blotch) Wheat leaf segments cv. Kanzler are placed on agar in a multiwell plate (24-well format) and sprayed with the formulated test compound diluted in water. The leaf disks are inoculated with a spore suspension of the fungus 2 days after application. The inoculated test leaf disks are incubated at 20° C. and 75% rh under a light regime of 12 h light/12 h darkness in a climate cabinet and the activity of a compound is assessed as percent disease control compared to untreated when an appropriate level of disease damage appears in untreated check leaf disks (5-7 days after application).

[3] = tested on: Mycosphaerella graminicola (Septoria tritici); experiment: Mycosphaerella graminicola (Septoria tritici) / liquid culture (Septoria blotch); assay type: cell-based; conditions: Zymoseptoria tritici, 96 h, 200 ppm in the formulation, inhibition of growth determined photometrically 4 to 5 days after application, compared to untreated control, read-out: disease control
Procedure: as §1, with “graminicola (Septoria tritici)/Liquid” for “arachidis (Cercospora arachidicola)/Liquid”, “(Septoria Blotch)” for “(Early Leaf Spot)”, “4 to 5” for “4-5”

[4] = tested on: Monographella nivalis (Microdochium nivale); experiment: Monographella nivalis (Microdochium nivale) / liquid culture (foot rot cereals); assay type: cell-based; conditions: 96 h, 200 ppm in the formulation, inhibition of growth determined photometrically 4-5 days after application, compared to untreated control, read-out: disease control
Procedure: as §1, with “Monographella nivalis (Microdochium nivale)/Liquid” for “Mycosphaerella arachidis (Cercospora arachidicola)/Liquid”, “(Foot Rot Cereals)” for “(Early Leaf Spot)”

[5] = tested on: Glomerella lagenarium (Colletotrichum lagenarium); experiment: Glomerella lagenarium (Colletotrichum lagenarium) / liquid culture (anthracnose); assay type: cell-based; conditions: Colletotrichum orbiculare, 72 h, 200 ppm in the formulation, inhibition of growth measured photometrically 3 to 4 days after application, compared to untreated control, read-out: disease control
Procedure: as §1, with “Glomerella lagenarium (Colletotrichum lagenarium)/Liquid” for “Mycosphaerella arachidis (Cercospora arachidicola)/Liquid”, “(Anthracnose)” for “(Early Leaf Spot)”, “measured” for “determined”, “3 to 4” for “4-5”

## COc1ccnc(C(=O)N[C@@H](C)C(=O)OC2CCC2(c2ccccc2C)c2ccccc2C)c1O (stereo partly drawn) [I.o.02, [2,2-bis(o-tolyl)cyclobutyl] (2S)-2-[(3-hydroxy-4-methoxy-pyridine-2-carbonyl)amino]propanoate]
[1]
  inhibition of growth at 200 ppm: ≥ 80%
[2]
  disease control: at least 80%
[3]
  inhibition of growth at 200 ppm: ≥ 80%
[4]
  inhibition of growth at 200 ppm: ≥ 80%
[5]
  inhibition of growth at 200 ppm: ≥ 80%
